For two molecules, EC50 and IC50 results are on record in patent EP0278686A1, “Pyridopyrimidines methods for their preparation and pharmaceutical formulations thereof” (THE WELLCOME FOUNDATION LIMITED, priority 1987, dated 1988).

In test [1] the test system is human T-cell line CCRF/CEM. Put plainly: In vitro cytotoxicity in cell culture, CCRF/CEM. The class given is cell-based. As to conditions: read-out: ED50 (the source's name). Here is the method: (§1) The cytotoxicity of the test compounds was determined in cell culture using the human T-cell line CCRF/CEM (ATCC CCL 119) and also the human breast cancer cell line MCF-7 [H.D. Soule, et al., J.. Nat. Cancer Inst., 51, 1409 (1973)].

The target in test [2] is T1, DHFR (Rattus norvegicus, UniProt Q920D2).
T1 construct: DHFR isolated from bacterial and mammalian sources; from tissue; host or cells: rat liver
T1 sequence (Q920D2 1-187): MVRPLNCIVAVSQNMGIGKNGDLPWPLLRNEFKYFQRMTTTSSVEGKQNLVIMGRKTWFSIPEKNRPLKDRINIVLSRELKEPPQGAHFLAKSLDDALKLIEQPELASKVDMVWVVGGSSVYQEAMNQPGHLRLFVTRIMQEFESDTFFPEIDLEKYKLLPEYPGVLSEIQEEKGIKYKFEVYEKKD
Put plainly: In vitro DHFR binding affinities (DHFR inhibition), rat liver enzyme. The test is classed as biochemical. As for the experimental part: (§2) The inhibition by the title compound of DHFR isolated from bacterial and mammalian sources was determined using known procedures [B. Roth et al., J. Med. Chem., 24, 933 (1981)].

Test [3] has as its system human breast cancer cell line MCF-7. In words: In vitro cytotoxicity in cell culture, MCF-7. The test is classed as cell-based. The conditions noted are these: MCF7, Cell line MCF-7, cytotoxicity, read-out: ED50 (the source's name). Here is the method:
as §1

Test [4] addresses T2, DHFR (Escherichia coli, UniProt P0ABQ4).
T2 construct: DHFR isolated from bacterial and mammalian sources; endogenous in cells
Put plainly: In vitro DHFR binding affinities (DHFR inhibition), E. coli enzyme. The class given is biochemical. Here is the method:
as §2

The IC50 is the midpoint of a concentration-inhibition curve. The low end stands for inhibition by little substance, the high end for a need for much substance. As for `COc1ccc(O)cc1Cc1cnc2nc(N)nc(N)c2c1C` [Compound B, 2,4-diamino-5-methyl-6-(5-hydroxy-2-methoxybenzyl)pyrido[2,3-d] pyrimidine], the results for the EC50 in test [1] and in test [3] were 80 nM and 750 nM, respectively. The figures for the 50% inhibitory concentration (IC50) at DHFR [2] and on DHFR [4] were 12 nM and 16 nM, respectively.
For the molecule `COc1ccc(O)c(Cc2cnc3nc(N)nc(N)c3c2C)c1` [Compound A, 2,4-diamino-5-methyl-6-(2-hydroxy-5-methoxybenzyl)pyrido[2,3-d] pyrimidine], the values for the EC50 in test [1] and in test [3] were 400 nM and 790 nM, respectively. Besides, the IC50 on DHFR [2] came out at 18 nM; at DHFR [4], 8 nM.
